Where a name gives a salt, the structure may show the parent alone. Read-outs that look alike come from different tables or passages of the source.
Legend:
[1] = Release through PANi membrane in Franz diffusion cell, no iontophoresis
[2] = From the text: To study the iontophoretic property of the PANi membranes, standard Ag|AgCl electrode was used.
[3] = remark: listed apart in the source
From the text: For the permeation study of PANi membrane based on aqueous-organic partitioning system, doxycycline HCl suspension in light mineral oil was used as the donor solution so that its permeation results would be compared with those from a hydrophilized polyvinylidene fluoride (PVDF) membrane in a general way.

[4] = PVDF membrane, aqueous-organic partitioning system, ref [9], cited from earlier work
[5] = Iontophoretic release through mouse skin with and without PANi membrane; format: in vitro ADME; conditions: PANi membrane and mouse skin together, iontophoresis, aqueous donor without chemical enhancer
[6] = as above; format: in vitro ADME; conditions: 0.3 mA/cm^2, EtOH:water 2:1 with 5% linoleic acid
Protocol: Skin membranes: Male hairless mice, strain SKH1, 8 weeks old, were supplied by Charles River Laboratories (Wilmington, Mass.). Mice were euthanized by carbon dioxide asphyxiation. Their skins were excised and kept at −30° C. until used.
In the case of skin membranes, the plastic bags containing the mouse skins were first taken out of the freezer and put into a beaker filled with room temperature water until they were defrosted. The skin samples were then removed from the plastic bags and cleaned of adhering fat deposits. They were then cut into small pieces of appropriate size and carefully mounted on top of the diffusion cells and left to equilibrate for 1 hour.
[formula] […] Results and Discussion
Three sets of iontophoretic experiments were carried out. In the first set, as a control test, traditional Ag|AgCl electrodes were used for the mouse skin only without the PANi membrane. In the other two sets, with the PANi membrane and the mouse skin together, either PANi|AgCl configuration or the Ag|AgCl configuration as electrodes was tested.
Therefore, instead of using a simple aqueous solution, 5% linoleic acid was added to the doxycycline HCl solution consisting of ethanol and water (EtOH: water=2:1, v/v). The reason for using ethanol was to increase the solubility of linoleic acid in the water.

[7] = PANi + skin, Ag|AgCl electrodes
[8] = PANi + skin, PANi|AgCl electrodes

SMILES: Cn1c(=O)c2c(ncn2C)n(C)c1=O [Caffeine, caffeine]
- Q24 (24 hours accumulation in the receptor part) ([1]; PANi membrane only): 573 ± 246 μg/cm^2
- Permeability ([1]; PANi membrane only, aqueous donor (about 200 mg/10 ml caffeine, doxycycline HCl; about 400 mg/10 ml lidocaine HCl)): 3.33 ± 2.5 ×10⁻⁶ cm/s
- Flux ([1]; PANi membrane only, aqueous donor, steady state): 240 ± 177 μg/cm^2 hr
- Flux ([1]; caffeine donor concentration 5 mg/ml, PANi membrane): 66.6 μg/cm^2 h
- Flux ([1]; caffeine donor concentration 10 mg/ml, PANi membrane): 136.2 μg/cm^2 h
- increase in flux vis-a-vis Table 1 [2]: about 30%
- release flux rate [2]: 305±79 μg/cm^2-hr

SMILES: C[C@H]1c2cccc(O)c2C(=O)C2=C(O)[C@]3(O)C(=O)C(C(N)=O)=C(O)[C@@H](N(C)C)[C@@H]3[C@@H](O)[C@@H]21.Cl [Doxycycline HCl, doxycycline hydrochloride]
- Flux [3]: 31 ± 18 μg/cm^2 hr
- Permeability [3]: 0.83 ± 0.56 ×10⁻⁶ cm/s
- Q [3]: 80 ± 46 μg/cm^2
- Q ([4]; 24 hr): 1440 ± 240 μg/cm^2
- Flux [4]: 146 ± 27 μg/cm^2 hr
- Permeability [4]: 8.3 ± 2.8 ×10⁻⁶ cm/s
- Experimental flux [2]: 793 ± 111 μg/cm^2 hr
- amount a skin patch can deliver [2]: about 0.8 mg
- change of flux versus passive release (Table 1), in words [2]: increased more than ten times
- release flux rate [2]: 793±111 μg/cm^2-hr
- release, in words [5]: no release was achieved
- release, in words ([6]; PANi + skin, Ag|AgCl electrode set): no release
- Flux [6, 7]: 0 μg/cm^2 hr
- Q24 [6, 7]: 0 μg/cm^2
- Flux [6, 8]: 94.4 ± 81.2 μg/cm^2 hr
- Permeability [6, 8]: 1.56 ± 1.33 ×10⁻⁶ cm/s
- Q24 [6, 8]: 2760 ± 3980 μg/cm^2
- Flux ([6]; Skin only, Ag|AgCl electrodes): 48.5 ± 8.5 μg/cm^2 hr
- Permeability ([6]; Skin only, Ag|AgCl electrodes): 1.06 ± 0.186 ×10⁻⁶ cm/s
- Q24 ([6]; Skin only, Ag|AgCl electrodes): 1020 ± 642 μg/cm^2

SMILES: CCN(CC)CC(=O)Nc1c(C)cccc1C [Lidocaine HCl, lidocaine hydrochloride]
- Q24 (24 hours accumulation in the receptor part) ([1]; PANi membrane only): 3330 ± 1760 μg/cm^2
- Experimental flux [2]: 411 ± 144 μg/cm^2 hr
- change of flux versus passive release (Table 1), in words [2]: small decrease in the flux
- release flux rate [2]: 411±144 μg/cm^2-hr

From patent US8036738B2, “Iontophoretic transdermal drug delivery system based on conductive polyaniline membrane” (priority 2006, dated 2011)
